Data set [1] has as its system Escherichia coli. The data set can be described thus: Drug uptake in Escherichia coli ATCC 25922 assessed as mean fluorescence intensity using BODIPY-labeled compound at 0.25 to 4 uM incubated for 10 mins by flow cytometry. Type of data set: ADME, organism-based. The note with it: in vivo. Background: A flow cytometer gives signals particle by particle.
Data set [2] has as its system Escherichia coli. The data set can be described thus: Drug uptake in Escherichia coli ATCC 25922 assessed as mean fluorescence intensity using BODIPY-labeled compound at 0.25 to 4 uM incubated for 10 mins in presence of trypan blue quencher by flow cytometry. The following applies: in vivo. Type of data set: ADME, organism-based.
Data set [3] has as its system Escherichia coli. Description: Drug uptake in Escherichia coli ATCC 25922 assessed as mean fluorescence intensity using BODIPY-labeled compound at 0.25 to 4 uM incubated for 60 mins by flow cytometry. The following applies: in vivo, 1 h. Type of data set: ADME, organism-based.
Data set [4] has as its system Escherichia coli. Description: Drug uptake in Escherichia coli ATCC 25922 assessed as mean fluorescence intensity using BODIPY-labeled compound at 0.25 to 4 uM incubated for 60 mins in presence of trypan blue quencher by flow cytometry. Type of data set: ADME, organism-based. The note with it: in vivo, 1 h.
The subject of data set [5] is Escherichia coli. The data set can be described thus: Antimicrobial activity against Escherichia coli ATCC 25922 incubated for 18 hrs at 37 degC by broth microdilution method. Type of data set: functional. The following applies: ATCC 25922, 18 h. On the technique in general: Broth dilution looks for growth in wells or tubes with falling amounts of substance.
Data set [6] concerns Escherichia coli. The data set can be described thus: Antimicrobial activity against Escherichia coli HB101 incubated for 18 hrs at 37 degC by broth microdilution method. Type of data set: functional. The note with it: HB101, 18 h.
For data set [7], the system named is Escherichia coli. Description: Drug uptake in O-antigen lacking LPS containing wild type Escherichia coli BW25113 at 1 uM up to 3.5 hrs in presence of trypan blue quencher. Type of data set: ADME, organism-based. The following applies: in vivo.
Data set [8] deals with Escherichia coli. The data set can be described thus: Drug uptake in Escherichia coli ATCC 25922 assessed as mean fluorescence intensity using BODIPY-labeled compound at 0.25 uM incubated for 10 mins by confocal microscopy. The following applies: in vivo. Type of data set: ADME, organism-based.
For data set [9], the system named is Escherichia coli. The data set can be described thus: Antimicrobial activity against O-antigen lacking LPS containing wild type Escherichia coli BW25113 incubated for 18 hrs at 37 degC by broth microdilution method. Type of data set: functional. The note with it: BW25113, 18 h.
In data set [10] the test system is Escherichia coli. The data set can be described thus: Antimicrobial activity against delta-waaG deletion mutant containing Escherichia coli BW25113 incubated for 18 hrs at 37 degC by broth microdilution method. Type of data set: functional. The following applies: BW25113, 18 h.
Data set [11] has as its system Escherichia coli. Description: Antimicrobial activity against delta-sbmA deletion mutant containing Escherichia coli BW25113 incubated for 18 hrs at 37 degC by broth microdilution method. Type of data set: functional. The following applies: BW25113, 18 h.
The subject of data set [12] is Escherichia coli. Description: Bacteriostatic activity against O-antigen lacking LPS containing wild type Escherichia coli BW25113 at 4 uM incubated for 3.5 hrs. Type of data set: functional, organism-based.
The test system of data set [13] is Escherichia coli. Description: Bacteriostatic activity against delta-waaG deletion mutant containing wild type Escherichia coli BW25113 at 4 uM incubated for 3.5 hrs. Type of data set: functional, organism-based.

Here are results for four compounds from ChEMBL document CHEMBL3407397, “Effect of size and N-terminal residue characteristics on bacterial cell penetration and antibacterial activity of the proline-rich peptide Bac7” (J Med Chem, 2015).

Values after ≈ are worked out from the molar mass of the structure shown. Active and inactive are the calls of the source. Residues, ends and D or L forms follow the SMILES beside them. *: point of attachment. X1 = F[B-]1(F)n2c(ccc2*)C=C2C=CC=[N+]21

One may read the MIC as the smallest concentration in the dilution series that meets the test's criterion for growth inhibition. A lower MIC goes with greater potency.

Turning to `CC[C@H](C)[C@H](NC(=O)[C@H](CCCNC(=N)N)NC(=O)[C@@H](N)CCCNC(=N)N)C(=O)N[C@@H](CCCNC(=N)N)C(=O)N1CCC[C@H]1C(=O)N[C@@H](CCCNC(=N)N)C(=O)N1CCC[C@H]1C(=O)N1CCC[C@H]1C(=O)N[C@@H](CCCNC(=N)N)C(=O)N[C@@H](CC(C)C)C(=O)N1CCC[C@H]1C(=O)N[C@@H](CCCNC(=N)N)C(=O)N1CCC[C@H]1C(=O)N[C@@H](CCCNC(=N)N)C(=O)N1CCC[C@H]1C(=O)N[C@@H](CSc1ccc2n1[B-](F)(F)[N+]1=CC=CC1=C2)C(=O)O` (H-RRIRPRPPRLPRPRPC(X1)-OH), the Drug uptake result in the data set on Escherichia coli [1], in the data set with Escherichia coli [2], with Escherichia coli [3] and in the data set with Escherichia coli [4] was “Not Active” throughout. Moreover, the minimum inhibitory concentration (MIC) against Escherichia coli [5] and against Escherichia coli [6] was 1 µM (≈ 2.21 µg/mL) throughout.

With `CC[C@H](C)[C@H](NC(=O)[C@H](CCCNC(=N)N)NC(=O)[C@@H](N)CCCNC(=N)N)C(=O)N[C@@H](CCCNC(=N)N)C(=O)N1CCC[C@H]1C(=O)N[C@@H](CCCNC(=N)N)C(=O)N1CCC[C@H]1C(=O)N1CCC[C@H]1C(=O)N[C@@H](CCCNC(=N)N)C(=O)N[C@@H](CC(C)C)C(=O)N1CCC[C@H]1C(=O)N[C@@H](CCCNC(=N)N)C(=O)N1CCC[C@H]1C(=O)N[C@@H](CCCNC(=N)N)C(=O)N1CCC[C@H]1C(=O)N[C@@H](CCCNC(=N)N)C(=O)N1CCC[C@H]1C(=O)N[C@@H](CC(C)C)C(=O)N1CCC[C@H]1C(=O)N[C@@H](Cc1ccccc1)C(=O)N1CCC[C@H]1C(=O)N[C@@H](CCCNC(=N)N)C(=O)N1CCC[C@H]1C(=O)N[C@@H](CSc1ccc2n1[B-](F)(F)[N+]1=CC=CC1=C2)C(=O)O` (H-RRIRPRPPRLPRPRPRPLPFPRPC(X1)-OH), the Drug uptake entry in the data set on Escherichia coli [1] was “Active”; in the data set with Escherichia coli [2] it was “Active”; in the data set on Escherichia coli [3], “Active”; in the data set with Escherichia coli [4], “Active”; with Escherichia coli [7], “Not Active”.

For the compound `CC[C@H](C)[C@H](NC(=O)[C@H](CCCNC(=N)N)NC(=O)[C@@H](N)CCCNC(=N)N)C(=O)N[C@@H](CCCNC(=N)N)C(=O)N1CCC[C@H]1C(=O)N[C@@H](CCCNC(=N)N)C(=O)N1CCC[C@H]1C(=O)N1CCC[C@H]1C(=O)N[C@@H](CCCNC(=N)N)C(=O)N[C@@H](CC(C)C)C(=O)N1CCC[C@H]1C(=O)N[C@@H](CCCNC(=N)N)C(=O)N1CCC[C@H]1C(=O)N[C@@H](CCCNC(=N)N)C(=O)N1CCC[C@H]1C(=O)N[C@@H](CCCNC(=N)N)C(=O)N1CCC[C@H]1C(=O)N[C@@H](CC(C)C)C(=O)N1CCC[C@H]1C(=O)N[C@@H](Cc1ccccc1)C(=O)N1CCC[C@H]1C(=O)N[C@@H](CCCNC(=N)N)C(=O)N1CCC[C@H]1C(=O)NCC(=O)N1CCC[C@H]1C(=O)N[C@@H](CCCNC(=N)N)C(=O)N1CCC[C@H]1C(=O)N[C@H](C(=O)N1CCC[C@H]1C(=O)N[C@@H](CCCNC(=N)N)C(=O)N1CCC[C@H]1C(=O)N[C@@H](CC(C)C)C(=O)N1CCC[C@H]1C(=O)N[C@@H](Cc1ccccc1)C(=O)N1CCC[C@H]1C(=O)N[C@@H](CSc1ccc2n1[B-](F)(F)[N+]1=CC=CC1=C2)C(=O)O)[C@@H](C)CC` (H-RRIRPRPPRLPRPRPRPLPFPRPGPRPIPRPLPFPC(X1)-OH), the Drug uptake entry in the data set with Escherichia coli [1], in the data set with Escherichia coli [2], in the data set with Escherichia coli [3], in the data set on Escherichia coli [4] and in the data set with Escherichia coli [8] was “Active” throughout.

Regarding H-IRPRPPRLPRPRPRPLPYPRP-OH, the minimal inhibitory concentration (MIC) is 8 µM in the data set on Escherichia coli [5], 8 µM in the data set on Escherichia coli [9], 4 µM in the data set on Escherichia coli [10] and 32 µM against Escherichia coli [11]. Also, the outcome in the data set with Escherichia coli [12] and in the data set on Escherichia coli [13] was Active.
